In this assay the target is T1, fMet-Leu-Phe receptor (Homo sapiens, UniProt P21462).
T1 sequence (P21462 whole entry): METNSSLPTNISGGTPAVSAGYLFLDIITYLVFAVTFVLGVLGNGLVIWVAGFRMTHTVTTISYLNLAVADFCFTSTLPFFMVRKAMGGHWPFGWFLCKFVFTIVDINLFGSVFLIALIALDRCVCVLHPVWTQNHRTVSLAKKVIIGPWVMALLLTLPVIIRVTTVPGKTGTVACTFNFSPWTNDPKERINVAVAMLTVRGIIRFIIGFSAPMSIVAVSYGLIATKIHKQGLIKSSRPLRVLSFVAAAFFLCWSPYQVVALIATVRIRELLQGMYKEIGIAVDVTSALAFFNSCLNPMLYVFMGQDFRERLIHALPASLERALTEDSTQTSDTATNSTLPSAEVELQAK
The experiment in a line: FPR ligands, dose response (AID 519).

SMILES strings stand for the structures.

In the case of `COc1ccc(C(=O)C2C(=O)C(=O)N(Cc3ccco3)C2c2ccc(OC)cc2OC)cc1` (stereo not given) [(4E)-5-(2,4-dimethoxyphenyl)-1-(2-furanylmethyl)-4-[hydroxy-(4-methoxyphenyl)methylidene]pyrrolidine-2,3-dione], the IC50 is greater than 66.7 µM.
In the case of `COc1cccc(C2C(C(=O)c3cc4ccccc4o3)C(=O)C(=O)N2c2cc(C)on2)c1OC` (stereo not given) [3-(1-benzofuran-2-carbonyl)-2-(2,3-dimethoxyphenyl)-4-hydroxy-1-(5-methyl-1,2-oxazol-3-yl)-2H-pyrrol-5-one] it was greater than 66.7 µM; in that of `CCCOc1ccc(C2C(C(=O)c3ccc(C)o3)C(=O)C(=O)N2Cc2cccnc2)cc1` (stereo not given) [3-(5-methylfuran-2-yl)carbonyl-4-oxidanyl-2-(4-propoxyphenyl)-1-(pyridin-3-ylmethyl)-2H-pyrrol-5-one], 42.7 µM.
In the case of `O=C1C(=O)N(Cc2ccco2)C(c2ccccc2)C1C(=O)c1cccs1` (stereo not given) [1-(2-furanylmethyl)-4-hydroxy-3-[oxo(thiophen-2-yl)methyl]-2-phenyl-2H-pyrrol-5-one] it was 35.2 µM; in that of `CCOc1cccc(C(=O)C2C(=O)C(=O)N(CCOC)C2c2ccc(C)o2)c1` (stereo not given) [(4Z)-4-[(3-ethoxyphenyl)-hydroxymethylidene]-1-(2-methoxyethyl)-5-(5-methyl-2-furanyl)pyrrolidine-2,3-dione], 13.5 µM; in that of `CCCCc1c(O)n(-c2ccccc2)n(-c2ccccc2)c1=O` [3,5-Dioxo-1,2-diphenyl-4-n-butylpyrazolidine], 5.3 µM.
On to `CC1=NC(C)=C(C#N)C(c2ccc3ncccc3c2)C1C#N` (stereo not given), for which the IC50 was greater than 66.7 µM.
In the case of `COc1ccccc1C1C(C(=O)c2ccccc2)C(=O)C(=O)N1CCO` (stereo not given) [(4Z)-1-(2-hydroxyethyl)-4-[hydroxy(phenyl)methylene]-5-(2-methoxyphenyl)pyrrolidine-2,3-quinone] it was 19.7 µM; in that of `CCOc1ccc(C(=O)C2C(=O)C(=O)N(CC3CCCO3)C2c2ccc(C)o2)cc1` (stereo not given) [(4Z)-4-[(4-ethoxyphenyl)-hydroxymethylidene]-5-(5-methyl-2-furanyl)-1-(2-oxolanylmethyl)pyrrolidine-2,3-dione], 21.1 µM.
On to `CSCCC1c2c(-c3cccs3)n[nH]c2OC(=N)C1C#N` (stereo not given) [6-azanyl-4-(2-methylsulfanylethyl)-3-thiophen-2-yl-2,4-dihydropyrano[2,3-c]pyrazole-5-carbonitrile], for which the IC50 is greater than 66.7 µM.
In the case of `Cc1ccc(C(=O)C2C(=O)C(=O)N(CC(C)O)C2c2ccc(N(C)C)cc2)cc1` (stereo not given) [(4E)-5-[4-(dimethylamino)phenyl]-1-(2-hydroxypropyl)-4-[hydroxy(p-tolyl)methylene]pyrrolidine-2,3-quinone] it was greater than 66.7 µM.
As for `COC(=O)Cc1n[nH]c2c1C(C1C=CCCC1)C(C#N)C(=N)O2` (stereo not given) [2-[6-amino-5-cyano-4-(1-cyclohex-2-enyl)-2,4-dihydropyrano[2,3-c]pyrazol-3-yl]acetic acid methyl ester], the IC50 was greater than 66.7 µM.
As for `CCN(CC)c1ccc(C=NC(C#N)C(=N)C#N)cc1` (stereo not given) [SMR000023871], the IC50 was greater than 66.7 µM.
In the case of `COCCCN1C(=O)C(=O)C(C(=O)c2ccc3c(c2)CC(C)O3)C1c1cccnc1` (stereo not given) [(4E)-1-(3-methoxypropyl)-4-[(2-methyl-2,3-dihydro-1-benzofuran-5-yl)-oxidanyl-methylidene]-5-pyridin-3-yl-pyrrolidine-2,3-dione] it was greater than 66.7 µM; in that of `COc1cccc(OC)c1C(=O)C(C#N)c1nc2ccccc2[nH]1` (stereo not given) [SMR000024183], greater than 66.7 µM; in that of `COCCCN1C(=O)C(=O)C(C(=O)c2ccc(OC)cc2C)C1c1cccnc1` (stereo not given) [(4E)-4-[(4-methoxy-2-methyl-phenyl)-oxidanyl-methylidene]-1-(3-methoxypropyl)-5-pyridin-3-yl-pyrrolidine-2,3-dione], greater than 66.7 µM.
Consider `Cc1ccc(C2C(C(=O)c3cnn(-c4ccccc4)c3C)C(=O)C(=O)N2CCN2CCOCC2)o1` (stereo not given) [(4Z)-4-[hydroxy-(5-methyl-1-phenyl-4-pyrazolyl)methylidene]-5-(5-methyl-2-furanyl)-1-[2-(4-morpholinyl)ethyl]pyrrolidine-2,3-dione], for which the concentration for half-maximal inhibition (IC50) turned out to be 23.2 µM.
In the case of `Cc1nc(C)c(C(=O)C2C(=O)C(=O)N(CCCn3ccnc3)C2c2ccc(Cl)cc2)s1` (stereo not given) [2-(4-chlorophenyl)-3-(2,4-dimethyl-1,3-thiazole-5-carbonyl)-4-hydroxy-1-(3-imidazol-1-ylpropyl)-2H-pyrrol-5-one] it was greater than 66.7 µM; in that of `COCCCN1C(=O)C(=O)C(C(=O)c2ccco2)C1c1ccc(Br)cc1` (stereo not given) [2-(4-bromophenyl)-3-(furan-2-carbonyl)-4-hydroxy-1-(3-methoxypropyl)-2H-pyrrol-5-one], 14.7 µM; in that of `Cc1ccc(C2C(C(=O)c3sc(C)nc3C)C(=O)C(=O)N2CCN2CCOCC2)o1` (stereo not given) [3-(2,4-dimethyl-1,3-thiazole-5-carbonyl)-4-hydroxy-2-(5-methylfuran-2-yl)-1-(2-morpholin-4-ylethyl)-2H-pyrrol-5-one], greater than 66.7 µM.
In the case of `COC(=O)c1ccc(C2C(C(=O)c3ccc(OC)cc3)C(=O)C(=O)N2Cc2ccco2)cc1` (stereo not given) [4-[(3Z)-1-(2-furanylmethyl)-3-[hydroxy-(4-methoxyphenyl)methylidene]-4,5-dioxo-2-pyrrolidinyl]benzoic acid methyl ester] it was 43 µM; in that of `COc1ccc(OC)c(C2C(C(=O)c3cccs3)C(=O)C(=O)N2c2cc(C)on2)c1` (stereo not given) [2-(2,5-dimethoxyphenyl)-1-(5-methyl-1,2-oxazol-3-yl)-4-oxidanyl-3-thiophen-2-ylcarbonyl-2H-pyrrol-5-one], greater than 66.7 µM; in that of `O=C1C(=O)N(c2ncccn2)C(c2ccc(Cl)cc2)C1C(=O)c1ccco1` (stereo not given) [2-(4-chlorophenyl)-3-(furan-2-carbonyl)-4-hydroxy-1-pyrimidin-2-yl-2H-pyrrol-5-one], greater than 66.7 µM.
Turning to `COc1ccc(C(=O)C2C(=O)C(=O)N(c3nc(C)c(C)s3)C2c2ccco2)cc1` (stereo not given) [(4Z)-1-(4,5-dimethyl-1,3-thiazol-2-yl)-5-(furan-2-yl)-4-[(4-methoxyphenyl)-oxidanyl-methylidene]pyrrolidine-2,3-dione], the IC50 was greater than 66.7 µM.
In the case of `O=C1C(=O)N(CCCN2CCOCC2)C(c2ccccn2)C1C(=O)c1cc2ccccc2o1` (stereo not given) [3-(1-benzofuran-2-carbonyl)-4-hydroxy-1-(3-morpholin-4-ylpropyl)-2-pyridin-2-yl-2H-pyrrol-5-one] it was 60.7 µM.

In general, IC50 refers to the concentration that gives 50% inhibition. Higher therefore signals a need for much substance.

These data come from BindingDB's records for doi:10.7270/Q2J67FB5 (Nmmlsc, 2007).
